Data on two compounds can be found in patent publication US9198903B2, “Method of treating or preventing thrombosis in a patient with 5-HT2A receptor antagonist thromboserin” (Thromboserin Limited, priority 2007, dated 2015).

Series [1] can be described thus: Skin bleeding time in randomised double blind cross-over study. Particulars: first 13 patients, drug 10 mg twice daily vs placebo cross-over courses. Format: in vivo, human patients. An excerpt:
Objective: To evaluate whether inhibition platelets can be accompanied by no increase in bleeding time, by means of serotonin 5HT2A receptor antagonism. Study population: Patients with a history of intermittent claudication (IC) or coronary heart disease (CHD) recruited. There were 48 patients studied, all of whom were Caucasian, aged 69±6.6 years and of which 38 were male and 10 female. Patients with IC have clinical findings of peripheral vascular disease and an ABPI <0.9. Patients with CHD have chronic stable angina and angiographic evidence of coronary artery disease (stenosis of >70% in at least one major coronary artery). Study design: Randomised controlled double blind cross-over study: 2 weeks 5HT2A receptor antagonist (Thromboserin) (10 mg twice daily) or placebo, wash out period of 2 weeks and cross over to other arm for further two weeks. Side effects, and compliance documented in both groups. Skin bleeding time was performed, contra-laterally from venepuncture. A suitable area of forearm was shaved if necessary and cleaned with alcohol swab. A sphygmomanometer cuff was inflated on the upper arm to 40 mmHg. One incision was made with Surgicutt bleeding device ([…], Hertfordshire), and a stopwatch was started. […] The bleeding time was recorded to the nearest 30 seconds.

The nature of series [2]: Clinical biochemistry (liver function tests, glucose, urea, creatinine, electrolytes) in cross-over study. Format: in vivo, human patients. The note with it: Thromboserin vs placebo. As to the method:
(§1) Study design: Randomised controlled double blind cross-over study: 2 weeks 5HT2A receptor antagonist (Thromboserin) (10 mg twice daily) or placebo, wash out period of 2 weeks and cross over to other arm for further two weeks. Side effects, and compliance documented in both groups. Blood sampling/Assays: Blood samples obtained at baseline, 2 weeks (the end of phase 1), 4 weeks (the end of phase 2), at 6 weeks (the end of phase 3) and 2 weeks after the completion of the study. The following assays were obtained. • Full blood count, urea, electrolytes, creatinine, liver function tests and glucose • Blood levels of Thromboserin • Bleeding time • Surface expression of the platelet activation markers P-selectin and fibrinogen. These were measured using whole blood flow cytometry. Measurement after incubation with agonists such as ADP was also performed in order to assess the platelet responsiveness to stimuli. • Ultegra Rapid Platelet Function Assay (RPFA). Methods: Venepuncture: Clinical symptoms and signs were also recorded. The other observations were: routine full blood count by Clinical Haematology Laboratory, ARI, and U&Es, creatinine, Liver Function tests and blood glucose by Clinical Biochemistry Laboratory, ARI.

In another series the test system is platelets. In words: Platelet count (full blood count) in cross-over study. Format: in vivo, human patients. As to the method: as §1, with “Venepuncture: Venous blood was collected into vacutainers by clean venepuncture with 19G butterfly and adaptor, using tourniquet to locate the vein only. The first 5 mL of blood was used for full blood count, and subsequent samples collected in order for the platelet tests and others.” for “Venepuncture:”

For series [3] the following is noted: in the presence of hypokalaemia; cited from earlier work.
The subject of a further series is alpha-1 adrenergic. Particulars: cited from earlier work.

On to `CN(C)C(C)(C)CSc1nc2ccccc2cc1-c1ccccc1.Cl` [Thromboserin], for which, in series [1], the “Change of bleeding time (in words)” value was “no significant rise in bleeding time”. Besides, in series [2] (Wilcoxon), the “Probability of no Difference: Alanine amino transferase” value was 0.0021; the “Probability of no Difference: Gamma GT” value is reported as 0.0216; the “Probability of no Difference: Gamma GT, In patients with abnormal values” is 0.0266. In addition, the “Probability of no Difference: Alkaline phosphatase” value in series [2] (paired t test) is on record as 0.0034. Moreover, in the series on platelets (Thromboserin 10 mg twice daily 2 weeks vs placebo, Wilcoxon), the “Probability of no Difference: Platelet count” value came to 0.0416. Also, in the series on platelets (Thromboserin vs placebo, Repeated measures ANOVA), the “Probability of no Difference: Platelet count over 6 weeks” value turned out to be 0.0233. In the series with platelets (Thromboserin vs placebo, Wilcoxon), the “Probability of no Difference: Platelets, excluding 4 patients With abnormal count” value is reported as 0.0214.

On to `O=C(c1ccc(F)cc1)C1CCN(CCn2c(=O)[nH]c3ccccc3c2=O)CC1` [Ketanserin], for which, in series [3], the “Pro-arrhythmic properties (in words)” value is given as “pro-arrhythmic properties”. For the same compound, the “Alpha-1 adrenergic activity (in words)” value with alpha-1 adrenergic was “alpha-1 adrenergic antagonistic properties”.
